Patent publication US20090118135A1, “METHODS AND COMPOUNDS FOR REGULATING APOPTOSIS” (The Burnham Institute, priority 2007, published 2009)
Where two headings read alike, the source gives them in different places.

Target: T1, GST-Bcl-B (Homo sapiens, UniProt Q9HD36)
T1 sequence (Q9HD36 1-182 limits assumed): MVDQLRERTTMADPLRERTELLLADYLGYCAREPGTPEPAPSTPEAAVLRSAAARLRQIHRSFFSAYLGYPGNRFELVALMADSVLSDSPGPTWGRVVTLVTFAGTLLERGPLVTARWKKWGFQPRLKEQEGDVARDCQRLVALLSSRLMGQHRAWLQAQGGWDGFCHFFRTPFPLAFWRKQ
Assay: Bcl-B/FITC-TR3-r8 fluorescence polarization competition (displacement) assay, HTS and dose-response

[1] = Table 8, NCI Structural library, Binding Assay, FP, Concentration 0.02 uM
[2] = read-out: Result Value (Result Type % Inhibition), BCL-b/TR3
[3] = Table 7, NCI Mechanistic library, Binding Assay, FP, Concentration 0.02 uM
[4] = LOPAC1280 library primary screen
[5] = LOPAC1280 library, fluorescence intensity normalized to plate negative controls
[6] = read-out: Result Value (% Inhibition)

For `Ic1ccc2c(c1)N(c1ccccc1)c1cc(Nc3ccc4nc5ccc(I)cc5[n+](-c5ccccc5)c4c3)ccc1N2` [Compound 402959], the “F Ratio” value [1] was 0.6261, the “Is Hit” value [1] was “Yes” and the inhibition at 0.02 µM [2] was 61.8%.

In the case of `C[C@]12CC[C@H]3[C@@H](CCC4=CC(=O)CC[C@@]43C)[C@@H]1CC[C@@H]2C(=O)COS(=O)(=O)c1ccc(Br)cc1` [Compound 88915], the “F Ratio” value [1] is reported as 0.2647, the “Is Hit” value [1] is reported as “Yes” and the inhibition at 0.02 µM [2] is reported as 61.4%.

With `CCN(CCO)CCNc1ccc(C)c2sc3ccccc3c(=O)c12` [Compound 20534] the “F Ratio” value [3] was 0.6411, the “Is Hit” value [3] was “Yes” and the inhibition at 0.02 µM [2] was 74.4%.

`O=c1cc(O)cc(/C=C/c2ccc(O)c(O)c2)o1` [H 5257] was tested, and the “Is Hit” value [4] was “Yes”, the “F Ratio” value [5] was 0.0971 and the inhibition at 0.02 µM [6] was 77%.

In the case of `O=[N+]([O-])c1cccc2c(/N=N/c3ccc4ccccc4c3O)c(O)cc(S(=O)(=O)O)c12` [Compound 85561], the “F Ratio” value [3] is reported as 0.06489, the “Is Hit” value [3] is reported as “Yes” and the inhibition at 0.02 µM [2] is reported as 141%.

In the case of `[NH3+][Ru]([NH3+])([NH3+])([NH3+])([NH3+])[O][Ru]([NH3+])([NH3+])([NH3+])([NH3+])[O][Ru]([NH3+])([NH3+])([NH3+])([NH3+])[NH3+]` [R 2751], the “Is Hit” value [4] is reported as “Yes” and the “F Ratio” value [5] is reported as 1.1267.

With `O=C1C=C(N2CCNCC2)C(=O)c2c(O)ccc(O)c21` [Compound 658144] the “Is Hit” value [3] was “Yes”.

`Cc1nn(-c2ccc(S(=O)(=O)O)cc2)c(O)c1/N=N/c1ccc(-c2ccc(/N=N/c3ccc4c(S(=O)(=O)O)cc(S(=O)(=O)O)c(N)c4c3O)c(O)c2)cc1O` [Compound 306711] was tested, and the “F Ratio” value [1] was 0.08966, the “Is Hit” value [1] was “Yes” and the inhibition at 0.02 µM [2] was 154%.

`O=S(=O)(O)c1cc(/N=N/c2cccc3ccccc23)c(O)c2ncccc12` [Compound 148354] was tested, and the “F Ratio” value [1] was 0.07045, the “Is Hit” value [1] was “Yes” and the inhibition at 0.02 µM [2] was 102%.

For `Cc1ccc(/N=N/c2c(O)ccc3cc(S(=O)(=O)O)ccc23)cc1` [Compound 7814], the “F Ratio” value [1] was 0.28, the “Is Hit” value [1] was “Yes” and the inhibition at 0.02 µM [2] was 54.3%.

For `Cc1nc(/N=N\c2cc(S(=O)(=O)O)c3cc([N+](=O)[O-])cc(S(=O)(=O)O)c3c2)c(COP(=O)(O)O)c(C=O)c1O` [P 2738], the “Is Hit” value [4] was “Yes”, the “F Ratio” value [5] was 0.2636 and the inhibition at 0.02 µM [6] was 66.6%.

In the case of `CC1C2C=CC1C(c1c3ccc(=O)c(O)c-3oc3c(O)c(O)ccc13)C2C(=O)O` (stereo not drawn) [Compound 119913], the “F Ratio” value [1] is reported as 0.0972, the “Is Hit” value [1] is reported as “Yes” and the inhibition at 0.02 µM [2] is reported as 131%.

In the case of `CS(=O)(=O)Nc1ccc(Nc2c3ccccc3nc3ccccc23)cc1` [Compound 156305], the “F Ratio” value [1] is reported as 0.1208, the “Is Hit” value [1] is reported as “Yes” and the inhibition at 0.02 µM [2] is reported as 58.6%.

With `O=C(O)/C=C/c1c2ccc(=O)c(O)c-2oc2c(O)c(O)ccc12` [Compound 119911] the “F Ratio” value [1] was 0.07992, the “Is Hit” value [1] was “Yes” and the inhibition at 0.02 µM [2] was 123%.

For `O=C(O)c1cnc2c(ccc3ncc(C(=O)O)c(O)c32)c1O` [Compound 128884], the “F Ratio” value [1] was 0.205, the “Is Hit” value [1] was “Yes” and the inhibition at 0.02 µM [2] was 55.3%.

In the case of `O=S(=O)(O)c1ccc2c(/N=N/c3c(O)ccc4ccccc34)cccc2c1` [Compound 45576], the “F Ratio” value [1] is reported as 0.05945, the “Is Hit” value [1] is reported as “Yes” and the inhibition at 0.02 µM [2] is reported as 119%.

For `Nc1ccc(-c2ccc(Nc3cc(S(=O)(=O)O)c(N)c4c3C(=O)c3ccccc3C4=O)cc2)c(S(=O)(=O)O)c1` [Compound 125910], the “F Ratio” value [1] was 0.2439, the “Is Hit” value [1] was “Yes” and the inhibition at 0.02 µM [2] was 123%.

With `CC[n+]1c(-c2ccccc2)c2cc(N)ccc2c2ccc(N)cc21` [Compound 268986] the “F Ratio” value [3] was 0.3849, the “Is Hit” value [3] was “Yes” and the inhibition at 0.02 µM (read-out: Result Value (Result Type % Inhibition), BCL-b/TR3, Table 7, NCI Mechanistic library, Binding Assay, FP, Concentration 0.02 uM) was 149%.

With `O=C1C(Cl)=C(Sc2nnc3c4ccccc4c4ccccc4c3n2)C(=O)c2ccccc21` [Compound 327705] the “F Ratio” value [1] was 0.2306, the “Is Hit” value [1] was “Yes” and the inhibition at 0.02 µM (read-out: Result Value (Result Type % Inhibition), BCL-b/TR3, Table 8, NCI Structural library, Binding Assay, FP, Concentration 0.02 uM) was 56.3%.

`CCN(CC)Cc1cc(/N=N/c2c(O)ccc3c(/N=N/c4ccc(O)c(CN(CC)CC)c4)c(O)ccc23)ccc1O` [Compound 359463] was tested, and the “F Ratio” value [3] was 0.08773, the “Is Hit” value [3] was “Yes” and the inhibition at 0.02 µM [2] was 94.9%.

For `CN(C)S(=O)(=O)c1ccc(Nc2ccc(O)c3c2C(=O)c2c([N+](=O)[O-])ccc(O)c2C3=O)cc1` [Compound 117949], the “F Ratio” value [1] was 0.9351, the “Is Hit” value [1] was “Yes” and the inhibition at 0.02 µM [2] was 50.3%.

In the case of `N=C(N)NCCCS(=O)(=O)Nc1ccc(Nc2c3ccccc3nc3cc([N+](=O)[O-])ccc23)cc1` [Compound 177365], the “F Ratio” value [3] is reported as 0.439, the “Is Hit” value [3] is reported as “Yes” and the inhibition at 0.02 µM [2] is reported as 51.9%.

`COc1ccc2c(NCCCCCCNc3c4ccccc4nc4cc(OC)ccc34)c3ccccc3nc2c1` [Compound 260610] was tested, and the “F Ratio” value [3] was 0.269, the “Is Hit” value [3] was “Yes” and the inhibition at 0.02 µM [2] was 53.3%.

`O=C(Nc1cc(C(=O)Nc2ccc(S(=O)(=O)O)cc2S(=O)(=O)O)cc(C(=O)Nc2ccc(S(=O)(=O)O)cc2S(=O)(=O)O)c1)Nc1cc(C(=O)Nc2ccc(S(=O)(=O)O)cc2S(=O)(=O)O)cc(C(=O)Nc2ccc(S(=O)(=O)O)cc2S(=O)(=O)O)c1` [N 4784] was tested, and the “Is Hit” value [4] was “Yes”, the “F Ratio” value [5] was 1.0398 and the inhibition at 0.02 µM [6] was 64.7%.
